Conditions: for log10 BCF / log10 biotransformation half-life (days): fish

Row | Compound | boiling point | melting point | other results
1 | CCCCCCCCCCCCCC(=O)O | 326 °C | 53.9 °C | log10 vapour pressure (mmHg): -5.85
2 | Clc1ccc(-c2ccccc2Cl)cc1Cl | – | – | log10 Henry constant (atm·m³/mol): -3.8; log10 vapour pressure (mmHg): -3.99
3 | O=C(F)C(F)(F)F | -59 °C | – | log10 Henry constant (atm·m³/mol): -3.48
4 | NCCCC[C@H](N)C(=O)O | – | – | log10 vapour pressure (mmHg): -8.28
5 | C=CC=CC(=O)O | – | 79 °C | –
6 | Cc1ccc(NC(=S)Nc2ccc(C)cc2)cc1 | – | 183 °C | –
7 | CCCCCCCCCCCCCCBr | 307 °C | 5.6 °C | log10 vapour pressure (mmHg): -3.35
8 | c1cc2ccc3cccc4ccc(c1)c2c34 | 404 °C | 151 °C | log10 Henry constant (atm·m³/mol): -4.92; log10 Koa: 8.8; log10 Koc (L/kg): 4.9; log10 biodegradation half-life (days): 2.37; log10 vapour pressure (mmHg): -5.35; log10 BCF: 3.18; log10 biotransformation half-life (days): 0.32
9 | O=C(O)c1c(F)c(F)cc(F)c1F | – | 151 °C | –
10 | C=C[C@H]1C[N@@]2CC[C@H]1C[C@H]2[C@H](O)c1ccnc2ccc(O)cc12 | – | 202 °C | –
11 | CCCCCCCCCCCCCO | – | 32.5 °C | log10 vapour pressure (mmHg): -3.36; ready biodegradability: readily biodegradable
12 | S=C(Cl)Cl | 73 °C | – | –
13 | COCC(C)OCC(C)OCC(C)O (centres undefined) | 250 °C | – | log10 vapour pressure (mmHg): -1.7
14 | CCCN(CCCl)c1c([N+](=O)[O-])cc(C(F)(F)F)cc1[N+](=O)[O-] | – | 42 °C | log10 Koc (L/kg): 3.55; log10 vapour pressure (mmHg): -4.52
15 | CC(=O)N(C(C)=O)c1ccc(/N=N/c2ccccc2C)cc1C | – | 75 °C | –
16 | CCCCCCCCC(Br)C(=O)O (centres undefined) | – | 4 °C | –
17 | O=C(OCC1(COC(=O)c2cccnc2)CCCC(COC(=O)c2cccnc2)(COC(=O)c2cccnc2)C1O)c1cccnc1 | – | 178 °C | –
18 | CCCCCCCCCCCCCCCCCc1ccccc1 | 397 °C | 32 °C | –
19 | O=C[C@H](O)[C@H](O)[C@H](O)CO | – | 98.5 °C | –
20 | NC(=O)OCC(O)COc1ccc(Cl)cc1 (centres undefined) | – | 90 °C | –
21 | Cc1ccc(NC(=O)N(C)C)cc1Cl | – | 148 °C | log10 Koc (L/kg): 2.02; log10 vapour pressure (mmHg): -7.44; ready biodegradability: not readily biodegradable

Row | Compound | boiling point | melting point | other results
22 | O=C1C(O)=C(Cl)C(=O)C(O)=C1Cl | – | 284 °C | –
23 | CC(=O)Nc1ccc(CC(=O)O)cc1 | – | 173 °C | –
24 | CC(O)C(C)O[N+](=O)[O-] (centres undefined) | – | – | log10 Henry constant (atm·m³/mol): -7
25 | O=C(C=CC(=O)Oc1ccccc1)Oc1ccccc1 | – | 73 °C | –
26 | COc1c(OC)c(OC(C)=O)c2c(OC)cccc2c1OC(C)=O | – | 69.5 °C | –
27 | CC[Si](F)(F)CC | 61 °C | -78.7 °C | –
28 | FC(F)(Cl)C(F)(Cl)C(F)(F)Cl | 73.7 °C | -72 °C | –
29 | Cc1ccccc1C(=O)Nc1cccc(OC(C)C)c1 | – | 92.5 °C | log10 vapour pressure (mmHg): -6.38
30 | CC(=O)OCCOCCOCCOC(C)=O | 286 °C | -50 °C | –
31 | O=C(O)c1ccc([N+](=O)[O-])cc1Cl | – | 140 °C | –
32 | NC(=O)Nc1cccc(F)c1 | – | – | log10 Koc (L/kg): 1.77
33 | NC(=O)c1ccccc1C(N)=O | – | 222 °C | –
34 | CCc1cc(C)nc(C)c1 | 188 °C | 97 °C | –
35 | CCCCCCCCCC1CCCCC1 | 282 °C | -10 °C | log10 vapour pressure (mmHg): -2.61
36 | ClCCCCCCCl | 204 °C | – | –
37 | C=C/C(C)=C\CC=C(C)C | – | – | log10 OH rate constant (cm³/molecule/s) ([…]): -9.6
38 | CCCCCCCOC(=O)CCCC | 245 °C | -46.4 °C | –
39 | Nc1ccccc1 | 184 °C | -6 °C | log10 Henry constant (atm·m³/mol): -5.69; log10 Koc (L/kg): 1.6; log10 vapour pressure (mmHg): -0.31; ready biodegradability: readily biodegradable; log10 BCF: 0.21; log10 biotransformation half-life (days): -0.78
40 | Nc1cccc(F)c1 | 188 °C | -5 °C | –
41 | COc1ccc(C(C)=O)c(OC)c1OC | 296 °C | 15.8 °C | –
42 | CC(=O)c1ccc(OCC(=O)O)cc1 | – | 176 °C | –

Row | Compound | boiling point | melting point | other results
43 | Sc1cccc2ccccc12 | 285 °C | – | ready biodegradability: not readily biodegradable
44 | CC(C)COCc1ccccc1 | 212 °C | – | –
45 | O=C1NCCN1 | – | 131 °C | –
46 | OC[C@@H](O)[C@H]1O[C@@H]2O[C@H](C(Cl)(Cl)Cl)O[C@@H]2[C@H]1O | – | 183 °C | –
47 | CCCCC(=O)O[C@]1(C(=O)CO)CC[C@H]2[C@@H]3CCC4=CC(=O)CC[C@]4(C)[C@H]3[C@@H](O)C[C@@]21C | – | 218 °C | –
48 | CC1=C(CCO)SC2=Nc3nc(C)ncc3CN21 | – | 229 °C | –
49 | CC(C)(C)CC(=O)OCC(=O)[C@@]1(O)CC[C@H]2[C@@H]3CCC4=CC(=O)CC[C@]4(C)[C@H]3[C@@H](O)C[C@@]21C | – | 168 °C | –
50 | CCCCCN | 104 °C | -55 °C | log10 Henry constant (atm·m³/mol): -4.61; log10 vapour pressure (mmHg): 1.48; ready biodegradability: readily biodegradable
51 | CCC(Br)(CC)C(=O)NC(=O)NC(C)=O | – | 109 °C | –
52 | CC(=O)c1cccc(C(F)(F)F)c1 | 199 °C | – | –
53 | Cc1cc(Br)cc([N+](=O)[O-])c1 | 270 °C | 83 °C | –
54 | O=[N+]([O-])c1cc[n+]([O-])cc1 | – | 160 °C | –
55 | CCCCC(CC)COP(=O)(O)OCC(CC)CCCC (centres undefined) | – | -50 °C | ready biodegradability: not readily biodegradable; log10 BCF: 0.64
56 | O=[N+]([O-])C(Br)(Br)Br | – | 10 °C | –
57 | NS(=O)(=O)c1ccc(N2C(=O)CC(c3ccccc3)C2=O)c(Cl)c1 (centres undefined) | – | 206 °C | –
58 | CC(=O)NO | – | 90.5 °C | –
59 | N#CCO | 183 °C | – | –
60 | O=C(O)COc1ccc(Cl)c(Cl)c1 | – | 139 °C | –
61 | COc1ccc(/C=N/NC(=O)c2ccncc2)cc1OC | – | 189 °C | –

Reference: the OPERA property sets (Mansouri et al. 2018)
